For two molecules, Activity, inhibition in vivo and CI results are on record in ChEMBL document CHEMBL3882727, “Imidazopyridine Kinase Inhibitors” (2008).

A short description of series [1]: Toxicity in nude mouse allografted with mouse LISN cells assessed as body weight loss at 30 to 300 mg/kg, qd for 21 days measured during compound dosing. The conditions noted are these: 504 h. In kind it is organism-based.
Series [2] can be described thus: Toxicity in nude mouse xenografted with human BT474 cells assessed as body weight loss at 15 to 60 mg/kg, qd for 3 weeks without dosing on weekends measured during compound dosing. In kind it is organism-based, BT-474. The conditions noted are these: in vivo, 504 h.
Series [3] can be described thus: Antitumor activity against human COLO205 cells xenografted in nude mouse assessed as tumor growth inhibition at 10 mg/kg, qd for 21 days relative to vehicle-treated control. In kind it is functional. The conditions noted are these: COLO 205, 504 h, read-out: TGI.
Series [4] can be described thus: Toxicity in nude mouse xenografted with human COLO205 cells assessed as body weight loss at 30 mg/kg, bid for 21 days measured within 10 days of compound dosing relative to vehicle-treated control. In kind it is organism-based, COLO 205. The conditions noted are these: in vivo.
The nature of series [5]: Growth inhibition of human MCF7 cells assessed as combination index in presence of lapatinib after 3 days by methylene blue staining-based assay. In kind it is functional.
Series [6] in a line: Toxicity in nude mouse xenografted with human COLO205 cells assessed as body weight loss at 100 mg/kg, qd for 21 days measured within 10 days of compound dosing relative to vehicle-treated control. In kind it is organism-based, COLO 205. The conditions noted are these: in vivo.
The nature of series [7]: Toxicity in nude mouse allografted with mouse LISN cells assessed as body weight loss at 15 mg/kg, bid for 21 days measured during compound dosing. The conditions noted are these: in vivo, 504 h. In kind it is organism-based.
Series [8] in a line: Toxicity in nude mouse allografted with mouse LISN cells assessed as body weight loss at 30 mg/kg, qd for 21 days measured during compound dosing. In kind it is organism-based. The settings on record: in vivo, 504 h.
Series [9] can be described thus: Growth inhibition of human MDA-MB-468 cells assessed as combination index in presence of lapatinib after 3 days by methylene blue staining-based assay. In kind it is functional.
Series [10] is described as follows: Toxicity in nude mouse xenografted with human BT474 cells assessed as body weight loss at 15 mg/kg, bid for 3 weeks without dosing on weekends measured during compound dosing. In kind it is organism-based, BT-474. The conditions noted are these: in vivo, 504 h.
The nature of series [11]: Toxicity in nude mouse allografted with mouse LISN cells assessed as body weight loss at 30 mg/kg, qd for every 3 days per week for 3 weeks measured during compound dosing. The settings on record: in vivo. In kind it is organism-based.
Series [12] is described as follows: Toxicity in nude mouse xenografted with human COLO205 cells assessed as body weight loss at 10 to 30 mg/kg, bid for 21 days measured during compound dosing. In kind it is organism-based, COLO 205. The settings on record: in vivo, 504 h.
The nature of series [13]: Growth inhibition of human A549 cells assessed as combination index in presence of lapatinib after 3 days by methylene blue staining-based assay. In kind it is functional.
Series [14] is described as follows: Growth inhibition of human MDA-MB-453 cells assessed as combination index in presence of lapatinib after 3 days by methylene blue staining-based assay. In kind it is functional.

As for `COc1cc(N2CCC(N3CCN(S(C)(=O)=O)CC3)CC2)ccc1Nc1nccc(-c2c(-c3cccc(C(=O)Nc4c(F)cccc4F)c3)nc3ccccn23)n1`, the Activity entry in series [1] is “Non-Toxic”.
Consider `COc1cc(N2CCC(N3CCN(CCF)CC3)CC2)ccc1Nc1nccc(-c2c(-c3cccc(C(=O)Nc4c(F)cccc4F)c3)nc3ccccn23)n1`, for which the Activity entry is listed as “Non-Toxic” in series [2]; greater than 20% in series [4]; greater than 20% in [6]; “Non-Toxic” in series [7]; “Non-Toxic” in series [8]; “Non-Toxic” in series [10]. Besides, the Activity entry was “Toxic” in [11] and “Non-Toxic” in [12]. The inhibition in vivo at 10 mg/kg in series [3] was 42%. Further, the CI in series [5] is 1; in series [9], 0.78 - 1.25; in series [13] it was less than 1; in [14] it was 0.31.
